Laboratory results reported in US20220009914A1, “Analogs of Nitrofuran Antibiotics to Combat Resistance” (The Trustees of Indiana University, priority 2020, published 2022).

Assays:
[1] = system: Pseudomonas aeruginosa strain NCTC 10332 (ATCC #10145); test: bacterial proliferation assay, P. aeruginosa; format: cell-based; conditions: read-out: Bacterial Proliferation EC50 P. aeruginosa
Protocol: (§1) All compounds were evaluated for inhibiting the proliferation of E. coli and each of the ESKAPE bacteria. Results presented represent the averages of EC50 values obtained from at least four replicates. Evaluating compounds for inhibition of bacterial cell proliferation.
(§2) Growth Media: E. coli were grown with LB medium and all ESKAPE bacteria were grown in Brain Heart Infusion (BHI) medium (Becton, Dickinson and Company), with all liquid cultures supplemented with 25 mg/L Ca^2+ and 12.5 mg/L Mg^2+ to mimic physiological free concentrations of these cations. A 10 mg/mL Ca^2+ stock solution was prepared by dissolving 1.84 g of CaCl2.2H2O in 50 mL of deionized water, and a 10 mg/mL Mg^2+ stock solution was prepared by dissolving 4.18 g of MgCl2.6H2O in 50 mL deionized water—filter sterilized using 0.2 μm cellulose-acetate filters. 2.5 mL of the sterile 10 mg/mL Ca^2+ stock and 1.25 mL of the sterile 10 mg/mL Mg^2+ stock solutions were added per 1 L of autoclaved LB or BHI media to obtain 25 mg/L Ca^2+ and 12.5 mg/L Mg^2+ ions, respectively.
(§3) General Assay Protocol: Stock bacterial cultures were streaked onto LB or BHI agar plates and grown overnight at 37° C. Fresh aliquots of cation supplemented media were inoculated with single bacterial colonies and the cultures were grown overnight at 37° C. with shaking (240 rpm). The following morning, cultures were diluted 10-fold into fresh media and grown at 37° C. until bacteria had reached mid-log phase growth (OD600˜0.4-0.6). The cultures were then diluted into fresh media to achieve final OD600 readings of 0.017. Aliquots of these diluted cultures (30 μL) were added to clear, flat-bottom 384-well polystyrene plates that were previously stamped with 0.5 μL of test compounds in 20 μL of media (yielding initial OD600=0.01 bacterial cultures). All compounds were tested in dose-response with concentration ranges during the proliferation assays from 100 μM to 46 nM (3-fold dilution series). A second set of baseline control plates were prepared analogously, but without any bacteria added, to correct for possible compound absorbance and/or precipitation. […] Plates were then read at 600 nm using a Molecular Devices SpectraMax Plus384 microplate reader. […] Results presented represent the averages of EC50 values obtained from at least four replicates.
(§4) Evaluating analogs for inhibiting the growth of E. coli and the ESKAPE bacteria. Analogs were initially tested for antibacterial efficacy against representative strains of antibiotic-sensitive E. coli and the ESKAPE bacteria. To determine compound efficacy, bacterial proliferation assays were carried out in liquid media culture supplemented with physiological concentrations of free calcium and magnesium cations. For these assays, bacterial cultures (OD600=0.01) were exposed to test compounds in 8-point, 3-fold dilution series (100 μM to 46 nM concentration range), in 384-well plates. After addition of compounds to cultures, the plates were sealed with Breathe-Easy gas permeable membranes and allowed to grow to mid-log phase (OD600˜0.4-0.6), whereupon final OD600 readings were taken to assess for bacterial growth and inhibition.

[2] = molecular target: T1, native rhodanese (Bos taurus, UniProt P00586); test: native rhodanese enzymatic activity counter-screen; format: biochemical; conditions: compounds added after refolding; read-out: Native Rho Activity IC50
T1 sequence (P00586 1-297): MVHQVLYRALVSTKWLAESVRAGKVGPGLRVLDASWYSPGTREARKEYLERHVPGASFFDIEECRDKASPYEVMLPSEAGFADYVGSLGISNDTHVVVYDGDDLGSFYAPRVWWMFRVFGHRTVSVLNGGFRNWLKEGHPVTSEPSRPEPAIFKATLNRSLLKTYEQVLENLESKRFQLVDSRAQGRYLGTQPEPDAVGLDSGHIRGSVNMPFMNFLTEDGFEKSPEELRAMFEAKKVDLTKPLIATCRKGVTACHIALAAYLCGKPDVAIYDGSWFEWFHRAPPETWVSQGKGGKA
Protocol: Counter-screening compounds for inhibition of native rhodanese enzymatic activity. Reagent Preparations & Assay Protocol: Reagents were identical to those used in the GroEL/ES-dRho refolding assay described above; however, the assay protocol differed in the sequence of compound addition to the wells. Compounds were pin-transferred after 50 minute incubation for the refolding cycle, but prior to the addition of the thiocyanate enzymatic assay stock. Thus, the refolding reactions were allowed to proceed for 50 min at 37° C. in the absence of test compounds, but the enzymatic activity of the refolded rhodanese reporter enzyme was monitored in the presence of test compounds (inhibitor concentration range during the enzymatic reporter reaction is 100 μM to 46 nM—3-fold dilutions). IC50 values for the rhodanese reporter enzyme were determined as described above. Results presented represent the averages of IC50 values obtained from at least four replicates.
All compounds were counter-screened for inhibiting the enzymatic activity of the native Rho reporter enzyme as per our previously reported procedure. Results presented represent the averages of IC50 values obtained from at least four replicates.

[3] = system: Staphylococcus aureus strain Seattle 1945 (ATCC #25923); test: bacterial proliferation assay, S. aureus; format: cell-based; conditions: Staphylococcus aureus, ATCC25923; read-out: Bacterial Proliferation EC50 S. aureus
Protocol: as §1, §2, §3, §4

[4] = system: NEB 5-alpha Escherichia coli; test: bacterial proliferation assay, E. coli; format: cell-based; conditions: Escherichia coli, read-out: Bacterial Proliferation EC50 E. coli
Protocol: as §1, §2, §3, §4

[5] = molecular target: T2, native MDH (Sus scrofa, UniProt P00346); test: native MDH activity counter-screen in the presence of E. coli NfsB nitroreductase; format: biochemical, pig; conditions: with E. coli NfsB nitroreductase; read-out: Native MDH Activity w/NfsB IC50
T2 sequence (P00346 25-338): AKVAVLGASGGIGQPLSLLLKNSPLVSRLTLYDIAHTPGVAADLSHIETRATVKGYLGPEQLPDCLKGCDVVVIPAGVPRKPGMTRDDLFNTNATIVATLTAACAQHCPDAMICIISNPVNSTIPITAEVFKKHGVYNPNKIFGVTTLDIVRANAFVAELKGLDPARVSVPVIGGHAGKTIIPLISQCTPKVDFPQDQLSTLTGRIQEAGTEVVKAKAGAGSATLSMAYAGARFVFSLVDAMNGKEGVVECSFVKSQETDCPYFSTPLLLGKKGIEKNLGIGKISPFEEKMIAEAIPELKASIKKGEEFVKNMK
Protocol: Evaluating compounds for inhibition in the GroEL/ES-mediated dMDH refolding assay and native MDH activity counter-screen in the presence of E. coli NfsB nitroreductase. These assays were performed nearly identically to those mentioned above, but with a couple distinct modifications. […] The remainder of the assay was conducted as in our standard protocol where no NfsB nitroreductase was present. […] Results presented represent the averages of IC50 values obtained from at least four replicates in each assay.

[6] = system: Acinetobacter baumannii strain 2208 (ATCC 19606); test: bacterial proliferation assay, A. baumannii; format: cell-based; conditions: ATCC19606, read-out: Bacterial Proliferation EC50 A. baumannii
Protocol: as §1, §2, §3, §4

| Structure (SMILES) | EC50 [1] [µM] | IC50 [2] [µM] | EC50 [3] [µM] | EC50 [4] [µM] | IC50 [5] [µM] | EC50 [6] [µM] |
| --- | --- | --- | --- | --- | --- | --- |
| COc1ccc(C(=O)N/N=C/c2cccc3ccccc23)cc1 [Compound 33, 4-methoxy-N′-(naphthalen-1-ylmethylene)benzohydrazide] | > 100 | > 100 | > 100 | > 100 | > 56 | > 100 |
| O=C(N/N=C/c1ccc(O)c2ncccc12)c1cccs1 [Compound 3, N′-((8-hydroxyquinolin-5-yl)methylene)thiophene-2-carbohydrazide] | > 100 | 87 | 63 | 77 | > 56 | 74 |
| O=C(N/N=C/c1ccc(O)c2ncccc12)c1ccncc1 [Compound 6, N′-((8-hydroxyquinolin-5-yl)methylene)isonicotinohydrazide] | > 100 | > 100 | > 100 | 79 | > 56 | > 100 |
| CN(C)c1ccc(C(=O)N/N=C/c2ccc(O)c3ncccc23)cc1 [Compound 8, 4-(dimethylamino)-N′-((8-hydroxyquinolin-5-yl)methylene)benzohydrazide] | > 100 | 67 | 99 | 93 | > 56 | > 100 |
| CCOc1ccc(S(=O)(=O)Nc2ccc(C(=O)N/N=C/c3ccc([N+](=O)[O-])o3)cc2)cc1 [Compound 28, 4-ethoxy-N-(4-(2-((5-nitrofuran-2-yl)methylene)hydrazine-1-carbonyl)phenyl)benzenesulfonamide] | > 100 | 45 | > 100 | > 100 | > 56 | > 100 |
| O=Cc1ccc([N+](=O)[O-])o1 [Compound 41, reference compound] | > 100 | 32 | 5.8 | 9.5 | > 56 | 12 |
| O=C(N/N=C/c1ccc(O)c2ncccc12)c1cccc(Oc2ccccc2)c1 [Compound 11, N′-((8-hydroxyquinolin-5-yl)methylene)-3-phenoxybenzohydrazide] | > 100 | 85 | > 100 | > 100 | > 56 | > 100 |
| COc1ccc(C(=O)N/N=C/c2ccccc2)cc1 [Compound 37, N′-benzylidene-4-methoxybenzohydrazide] | > 100 | > 100 | > 100 | > 100 | > 56 | > 100 |
| O=[N+]([O-])c1ccc(O)c2ncccc12 [Nitroxoline, reference compound] | 99 | 2 | 9.5 | 4 | > 56 | 2.5 |
| COc1ccc(C(=O)N/N=C/c2ccc(O)cc2)cc1 [Compound 35, N′-(4-hydroxybenzylidene)-4-methoxybenzohydrazide] | > 100 | > 100 | > 100 | > 100 | > 56 | > 100 |
| O=C1CN(/N=C/c2ccc(O)c3ncccc23)C(=O)N1 [Compound 2, 1-(((8-hydroxyquinolin-5-yl)methylene)amino)imidazolidine-2,4-dione] | > 100 | > 100 | 37 | 80 | > 56 | > 100 |
